SMILES strings stand for the structures.

This is an account of results in ChEMBL document CHEMBL1139343, “Pharmacophore guided discovery of small-molecule human apurinic/apyrimidinic endonuclease 1 inhibitors” (J Med Chem, 2009).

Assay [1] deals with Human immunodeficiency virus type 1 integrase (Human immunodeficiency virus 1, UniProt Q7ZJM1). The experiment in a line: Inhibition of HIV1 integrase.
For assay [2], the target named is DNA repair nuclease/redox regulator APEX1 (Homo sapiens, UniProt P27695). Kind of assay: Inhibition of purified human recombinant APE1 expressed in Escherichia coli M15 cells.
Assay [3] is described as follows: Inhibition of endonuclease 4.
Assay [4] is described as follows: Inhibition of exonuclase 3.
Assay [5] can be described thus: Selectivity index, IC50 for human recombinant APE1 over exonuclase 3.

Sequence of Human immunodeficiency virus type 1 integrase (Q7ZJM1 whole entry): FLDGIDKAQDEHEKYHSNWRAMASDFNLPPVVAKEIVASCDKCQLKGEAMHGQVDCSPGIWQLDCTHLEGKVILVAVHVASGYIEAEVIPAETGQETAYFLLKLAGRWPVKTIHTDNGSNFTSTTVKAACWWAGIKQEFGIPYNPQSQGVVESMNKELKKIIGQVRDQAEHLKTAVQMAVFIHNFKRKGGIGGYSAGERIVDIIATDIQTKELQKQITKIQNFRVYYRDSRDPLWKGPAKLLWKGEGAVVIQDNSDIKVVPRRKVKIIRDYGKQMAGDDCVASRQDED
Sequence of DNA repair nuclease/redox regulator APEX1 (P27695 whole entry): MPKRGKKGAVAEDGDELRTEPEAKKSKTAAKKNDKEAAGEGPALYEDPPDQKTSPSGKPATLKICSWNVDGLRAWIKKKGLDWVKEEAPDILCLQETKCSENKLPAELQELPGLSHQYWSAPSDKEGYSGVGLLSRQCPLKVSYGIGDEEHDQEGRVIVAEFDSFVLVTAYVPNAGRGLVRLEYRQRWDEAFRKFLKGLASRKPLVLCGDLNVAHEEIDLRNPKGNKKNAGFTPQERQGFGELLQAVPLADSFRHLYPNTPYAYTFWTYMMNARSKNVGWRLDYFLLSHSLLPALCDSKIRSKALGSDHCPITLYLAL

`Cc1oc(C)c(C(=O)O)c1COc1ccccc1C(=O)O`: the IC50 in assay [1] is over 100 µM; in assay [2] it was 6 µM; in assay [3] it was over 100 µM; in assay [4] it was 98 µM. Also, the Ratio IC50 in assay [5] turned out to be 16.

On to `O=C(O)Cn1c(CCCCc2nc3ccccc3n2CC(=O)O)nc2ccccc21`, for which the 50% inhibitory concentration (IC50) in assay [1] is over 100 µM; in assay [2], 4 µM; in assay [3], over 100 µM; in assay [4], 80 µM. Moreover, the Ratio IC50 in assay [5] stood at 20.

In the case of `O=C(O)CCN1C(=O)/C(=C2/C(=O)N(CC(=O)O)c3ccccc32)SC1=S`, the IC50 in assay [1] was over 100 µM; in assay [2], 6 µM; in assay [3] it was over 100 µM; in assay [4], 60 µM. In assay [5], the Ratio IC50 worked out at 10.

Take `O=C(O)Cc1cc(S(=O)(=O)c2ccc(Sc3ccc(C(=O)O)cc3)cc2)ccc1C(=O)O`: the half-inhibitory concentration (IC50) in assay [1] was over 100 µM; in assay [2] it was 4 µM; in assay [3], over 100 µM; in assay [4] it was 90 µM. Besides, the Ratio IC50 in assay [5] was 23.

On to `O=C(O)CCc1ccc(-c2ccc(Cl)cc2)n1CC(=O)O`, for which the IC50 was over 100 µM in assay [1], 4 µM in assay [2], over 100 µM in assay [3] and over 100 µM in assay [4]. In addition, in assay [5], the Ratio IC50 was over 25.
